Among the data in ChEMBL document CHEMBL4028804, “The Necessary Nitrogen Atom: A Versatile High-Impact Design Element for Multiparameter Optimization” (J Med Chem, 2017) are EC50 and Ki values, retold here.

One may read the EC50 as the midpoint of the concentration-response curve. One may read the Ki as a measure of affinity in units of concentration, obtained from inhibition or displacement.

The target in assay [1] is T1, Mu-type opioid receptor (Homo sapiens, UniProt P35372). Kind of assay: Agonist activity at human mu-opioid receptor expressed in HEK293 cells coexpressing delta6-Galphaqi4-myr assessed as induction of intracellular calcium flux after 48 hrs by FLIPR assay. Type of assay: functional, cell-based. In general terms: Calcium flux is commonly read through the fluorescence of an indicator in the cells.

Assay [2] concerns the target T1, Mu-type opioid receptor. In words: Agonist activity at human mu-opioid receptor expressed in HEK293 cell membranes after 1 hr by [35S]-GTPgammaS binding assay. The format is functional. (In general: GTPγS is a poorly hydrolysed GTP analogue; its binding reports G protein activation.)
Assay [3] has as its target T1, Mu-type opioid receptor. In words: Displacement of [3H]-DAMGO from human HA-tagged mu-opioid receptor expressed in HEK293 cells after 90 mins by liquid scintillation counting analysis. The format is cell-based.

T1 sequence (P35372 whole entry): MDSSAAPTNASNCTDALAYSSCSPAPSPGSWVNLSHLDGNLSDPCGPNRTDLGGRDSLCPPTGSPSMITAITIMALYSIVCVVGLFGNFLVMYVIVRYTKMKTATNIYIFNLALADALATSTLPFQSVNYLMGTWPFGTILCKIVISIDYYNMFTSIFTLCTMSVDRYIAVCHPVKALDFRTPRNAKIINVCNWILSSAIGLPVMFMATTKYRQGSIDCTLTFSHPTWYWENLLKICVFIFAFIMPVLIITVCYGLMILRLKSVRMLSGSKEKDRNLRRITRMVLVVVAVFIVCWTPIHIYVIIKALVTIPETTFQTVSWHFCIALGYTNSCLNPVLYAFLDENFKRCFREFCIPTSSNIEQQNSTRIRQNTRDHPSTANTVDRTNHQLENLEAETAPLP

Regarding `O=C(N[C@@H]1CC[C@@]2(O)[C@H]3Cc4ccc(O)c5c4[C@@]2(CCN3CC2CC2)[C@H]1O5)c1ccc2ccccc2c1`, the figures for the EC50 at Mu-type opioid receptor [1] and at Mu-type opioid receptor [2] were more than 1000 nM and 0.3 nM, respectively. The molecule also returned a Ki on Mu-type opioid receptor [3] of 0.0013 nM.
